Results taken from US6518243B1, “Desleucyl glycopeptide antibiotics and methods of making same” (Trustees of Princeton University, priority 1999, dated 2003).

Legend:
Test in all cases: Zone of inhibition screen, 96 well agar array format
Assay type in all cases: cell-based
Design in all cases: scale not given here
E. faecalis (CL 4877) = system: E. faecalis (CL 4877)
In short: (§1)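 Agar-array screen, 96-well; single compounds vs. strain panel (panel also incl. E. faecium ATCC 49624); antibacterial activity scored.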

S. aureus (ATCC 29213) = system: S. aureus (ATCC 29213)
In short: as §1

[1] = system: S. epidermidis (ATCC 12228)
In short: as §1

[2] = zone of inhibition relative to 1 mg/ml p-chlorobiphenylvancomycin
[3] = zone of inhibition relative to 1 mg/ml stock solution of p-chlorobiphenylvancomycin

Structure (SMILES): CC1OC(OC2C(Oc3c4cc5cc3Oc3ccc(cc3Cl)C(O)C(NC(=O)C(F)(F)C(F)(F)C(F)(F)F)C(=O)NC(CC(N)=O)C(=O)NC5C(=O)NC3C(=O)NC(C(=O)NC(C(=O)O)c5cc(O)cc(O)c5-c5cc3ccc5O)C(O)c3ccc(c(Cl)c3)O4)OC(CO)C(O)C2O)CC(C)(NCc2ccc(-c3ccc(Cl)cc3)cc2)C1O (centres unmarked) [Compound 290]
- zone score, E. faecalis CL 4877 (E. faecalis (CL 4877); [2]): 2
- zone score, S. aureus ATCC 29213 (S. aureus (ATCC 29213); [2]): 2
- zone score, S. epidermidis ATCC 12228 [1, 2]: 2

Structure (SMILES): CC1OC(OC2C(Oc3c4cc5cc3Oc3ccc(cc3Cl)C(O)C3NC(=O)C(NC(=O)C5NC(=O)C(CC(N)=O)NC(=O)C(NC(=O)c5ccccn5)C(O)c5ccc(c(Cl)c5)O4)c4ccc(O)c(c4)-c4c(O)cc(O)cc4C(C(=O)O)NC3=O)OC(CO)C(O)C2O)CC(C)(NCc2ccc(-c3ccc(Cl)cc3)cc2)C1O (centres unmarked) [Compound 312]
- zone score, E. faecalis CL 4877 (E. faecalis (CL 4877); [2]): 2
- zone score, S. aureus ATCC 29213 (S. aureus (ATCC 29213); [2]): 2
- zone score, S. epidermidis ATCC 12228 [1, 2]: 2

Structure (SMILES): C=C(CC(=O)OC)C(=O)NC1C(=O)NC(CC(N)=O)C(=O)NC2C(=O)NC3C(=O)NC(C(=O)NC(C(=O)O)c4cc(O)cc(O)c4-c4cc3ccc4O)C(O)c3ccc(c(Cl)c3)Oc3cc2cc(c3OC2OC(CO)C(O)C(O)C2OC2CC(C)(NCc3ccc(-c4ccc(Cl)cc4)cc3)C(O)C(C)O2)Oc2ccc(cc2Cl)C1O (centres unmarked) [Compound 293]
- zone score, E. faecalis CL 4877 (E. faecalis (CL 4877); [2]): 2
- zone score, S. aureus ATCC 29213 (S. aureus (ATCC 29213); [2]): 2
- zone score, S. epidermidis ATCC 12228 [1, 2]: 2

Structure (SMILES): CC1OC(OC2C(Oc3c4cc5cc3Oc3ccc(cc3Cl)C(O)C3NC(=O)C(NC(=O)C5NC(=O)C(CC(N)=O)NC(=O)C(NC(=O)C5CSC(=O)N5)C(O)c5ccc(c(Cl)c5)O4)c4ccc(O)c(c4)-c4c(O)cc(O)cc4C(C(=O)O)NC3=O)OC(CO)C(O)C2O)CC(C)(NCc2ccc(-c3ccc(Cl)cc3)cc2)C1O (centres unmarked) [Compound 224]
- zone score, E. faecalis CL 4877 (E. faecalis (CL 4877); [2]): 2
- zone score, S. aureus ATCC 29213 (S. aureus (ATCC 29213); [2]): 2
- zone score, S. epidermidis ATCC 12228 [1, 2]: 2

Structure (SMILES): CC1OC(OC2C(Oc3c4cc5cc3Oc3ccc(cc3Cl)C(O)C3NC(=O)C(NC(=O)C5NC(=O)C(CC(N)=O)NC(=O)C(NC(=O)C(N)CSCCO)C(O)c5ccc(c(Cl)c5)O4)c4ccc(O)c(c4)-c4c(O)cc(O)cc4C(C(=O)O)NC3=O)OC(CO)C(O)C2O)CC(C)(NCc2ccc(-c3ccc(Cl)cc3)cc2)C1O (centres unmarked) [Compound 48]
- zone score, E. faecalis CL 4877 (E. faecalis (CL 4877); [3]): 2
- zone score, S. aureus ATCC 29213 (S. aureus (ATCC 29213); [3]): 2
- zone score, S. epidermidis ATCC 12228 [1, 3]: 2

Structure (SMILES): CC1OC(OC2C(Oc3c4cc5cc3Oc3ccc(cc3Cl)C(O)C3NC(=O)C(NC(=O)C5NC(=O)C(CC(N)=O)NC(=O)C(NC(=O)CCC(N)=O)C(O)c5ccc(c(Cl)c5)O4)c4ccc(O)c(c4)-c4c(O)cc(O)cc4C(C(=O)O)NC3=O)OC(CO)C(O)C2O)CC(C)(NCc2ccc(-c3ccc(Cl)cc3)cc2)C1O (centres unmarked) [Compound 202]
- zone score, E. faecalis CL 4877 (E. faecalis (CL 4877); [3]): 2
- zone score, S. aureus ATCC 29213 (S. aureus (ATCC 29213); [3]): 2
- zone score, S. epidermidis ATCC 12228 [1, 3]: 2

Structure (SMILES): CC1OC(OC2C(Oc3c4cc5cc3Oc3ccc(cc3Cl)C(O)C3NC(=O)C(NC(=O)C5NC(=O)C(CC(N)=O)NC(=O)C(NC(=O)c5cccn5C)C(O)c5ccc(c(Cl)c5)O4)c4ccc(O)c(c4)-c4c(O)cc(O)cc4C(C(=O)O)NC3=O)OC(CO)C(O)C2O)CC(C)(NCc2ccc(-c3ccc(Cl)cc3)cc2)C1O (centres unmarked) [Compound 229]
- zone score, E. faecalis CL 4877 (E. faecalis (CL 4877); [2]): 2
- zone score, S. aureus ATCC 29213 (S. aureus (ATCC 29213); [2]): 2
- zone score, S. epidermidis ATCC 12228 [1, 2]: 2

Structure (SMILES): CC1OC(OC2C(Oc3c4cc5cc3Oc3ccc(cc3Cl)C(O)C3NC(=O)C(NC(=O)C5NC(=O)C(CC(N)=O)NC(=O)C(NC(=O)c5ccc(N)cc5O)C(O)c5ccc(c(Cl)c5)O4)c4ccc(O)c(c4)-c4c(O)cc(O)cc4C(C(=O)O)NC3=O)OC(CO)C(O)C2O)CC(C)(NCc2ccc(-c3ccc(Cl)cc3)cc2)C1O (centres unmarked) [Compound 274]
- zone score, E. faecalis CL 4877 (E. faecalis (CL 4877); [2]): 2
- zone score, S. aureus ATCC 29213 (S. aureus (ATCC 29213); [2]): 2
- zone score, S. epidermidis ATCC 12228 [1, 2]: 2

Structure (SMILES): COc1ccc(C(=O)NC2C(=O)NC(CC(N)=O)C(=O)NC3C(=O)NC4C(=O)NC(C(=O)NC(C(=O)O)c5cc(O)cc(O)c5-c5cc4ccc5O)C(O)c4ccc(c(Cl)c4)Oc4cc3cc(c4OC3OC(CO)C(O)C(O)C3OC3CC(C)(NCc4ccc(-c5ccc(Cl)cc5)cc4)C(O)C(C)O3)Oc3ccc(cc3Cl)C2O)cc1OC (centres unmarked) [Compound 253]
- zone score, E. faecalis CL 4877 (E. faecalis (CL 4877); [2]): 2
- zone score, S. aureus ATCC 29213 (S. aureus (ATCC 29213); [2]): 2
- zone score, S. epidermidis ATCC 12228 [1, 2]: 2

Structure (SMILES): CC1OC(OC2C(Oc3c4cc5cc3Oc3ccc(cc3Cl)C(O)C3NC(=O)C(NC(=O)C5NC(=O)C(CC(N)=O)NC(=O)C(NC(=O)c5cc6ccccc6[nH]5)C(O)c5ccc(c(Cl)c5)O4)c4ccc(O)c(c4)-c4c(O)cc(O)cc4C(C(=O)O)NC3=O)OC(CO)C(O)C2O)CC(C)(NCc2ccc(-c3ccc(Cl)cc3)cc2)C1O (centres unmarked) [Compound 291]
- zone score, E. faecalis CL 4877 (E. faecalis (CL 4877); [2]): 2
- zone score, S. aureus ATCC 29213 (S. aureus (ATCC 29213); [2]): 2
- zone score, S. epidermidis ATCC 12228 [1, 2]: 2

Structure (SMILES): CC(=O)C(=O)NC1C(=O)NC(CC(N)=O)C(=O)NC2C(=O)NC3C(=O)NC(C(=O)NC(C(=O)O)c4cc(O)cc(O)c4-c4cc3ccc4O)C(O)c3ccc(c(Cl)c3)Oc3cc2cc(c3OC2OC(CO)C(O)C(O)C2OC2CC(C)(NCc3ccc(-c4ccc(Cl)cc4)cc3)C(O)C(C)O2)Oc2ccc(cc2Cl)C1O (centres unmarked) [Compound 314]
- zone score, E. faecalis CL 4877 (E. faecalis (CL 4877); [2]): 2
- zone score, S. aureus ATCC 29213 (S. aureus (ATCC 29213); [2]): 2
- zone score, S. epidermidis ATCC 12228 [1, 2]: 2

Structure (SMILES): CC1OC(OC2C(Oc3c4cc5cc3Oc3ccc(cc3Cl)C(O)C3NC(=O)C(NC(=O)C5NC(=O)C(CC(N)=O)NC(=O)C(NC(=O)CNC(=O)C(CCC(N)=O)NC(=O)OCc5ccccc5)C(O)c5ccc(c(Cl)c5)O4)c4ccc(O)c(c4)-c4c(O)cc(O)cc4C(C(=O)O)NC3=O)OC(CO)C(O)C2O)CC(C)(NCc2ccc(-c3ccc(Cl)cc3)cc2)C1O (centres unmarked) [Compound 211]
- zone score, E. faecalis CL 4877 (E. faecalis (CL 4877); [2]): 2
- zone score, S. aureus ATCC 29213 (S. aureus (ATCC 29213); [2]): 2
- zone score, S. epidermidis ATCC 12228 [1, 2]: 2

Structure (SMILES): CC(O)C(N)C(=O)NC1C(=O)NC(CC(N)=O)C(=O)NC2C(=O)NC3C(=O)NC(C(=O)NC(C(=O)O)c4cc(O)cc(O)c4-c4cc3ccc4O)C(O)c3ccc(c(Cl)c3)Oc3cc2cc(c3OC2OC(CO)C(O)C(O)C2OC2CC(C)(NCc3ccc(-c4ccc(Cl)cc4)cc3)C(O)C(C)O2)Oc2ccc(cc2Cl)C1O (centres unmarked) [Compound 323]
- zone score, E. faecalis CL 4877 (E. faecalis (CL 4877); [2]): 2
- zone score, S. aureus ATCC 29213 (S. aureus (ATCC 29213); [2]): 2
- zone score, S. epidermidis ATCC 12228 [1, 2]: 2

Structure (SMILES): CC1OC(OC2C(Oc3c4cc5cc3Oc3ccc(cc3Cl)C(O)C3NC(=O)C(NC(=O)C5NC(=O)C(CC(N)=O)NC(=O)C(NC(=O)Cc5ccc(Cl)cc5Cl)C(O)c5ccc(c(Cl)c5)O4)c4ccc(O)c(c4)-c4c(O)cc(O)cc4C(C(=O)O)NC3=O)OC(CO)C(O)C2O)CC(C)(NCc2ccc(-c3ccc(Cl)cc3)cc2)C1O (centres unmarked) [Compound 234]
- zone score, E. faecalis CL 4877 (E. faecalis (CL 4877); [2]): 2
- zone score, S. aureus ATCC 29213 (S. aureus (ATCC 29213); [2]): 2
- zone score, S. epidermidis ATCC 12228 [1, 2]: 2

Structure (SMILES): COc1ccc(CCC(=O)NC2C(=O)NC(CC(N)=O)C(=O)NC3C(=O)NC4C(=O)NC(C(=O)NC(C(=O)O)c5cc(O)cc(O)c5-c5cc4ccc5O)C(O)c4ccc(c(Cl)c4)Oc4cc3cc(c4OC3OC(CO)C(O)C(O)C3OC3CC(C)(NCc4ccc(-c5ccc(Cl)cc5)cc4)C(O)C(C)O3)Oc3ccc(cc3Cl)C2O)cc1OC (centres unmarked) [Compound 245]
- zone score, E. faecalis CL 4877 (E. faecalis (CL 4877); [2]): 2
- zone score, S. aureus ATCC 29213 (S. aureus (ATCC 29213); [2]): 2
- zone score, S. epidermidis ATCC 12228 [1, 2]: 2

Structure (SMILES): CC1OC(OC2C(Oc3c4cc5cc3Oc3ccc(cc3Cl)C(O)C3NC(=O)C(NC(=O)C5NC(=O)C(CC(N)=O)NC(=O)C(NC(=O)c5cccc[n+]5[O-])C(O)c5ccc(c(Cl)c5)O4)c4ccc(O)c(c4)-c4c(O)cc(O)cc4C(C(=O)O)NC3=O)OC(CO)C(O)C2O)CC(C)(NCc2ccc(-c3ccc(Cl)cc3)cc2)C1O (centres unmarked) [Compound 313]
- zone score, E. faecalis CL 4877 (E. faecalis (CL 4877); [2]): 2
- zone score, S. aureus ATCC 29213 (S. aureus (ATCC 29213); [2]): 2
- zone score, S. epidermidis ATCC 12228 [1, 2]: 2

Structure (SMILES): CC1OC(OC2C(Oc3c4cc5cc3Oc3ccc(cc3Cl)C(O)C3NC(=O)C(NC(=O)C5NC(=O)C(CC(N)=O)NC(=O)C(NC(=O)c5nccnc5C(N)=O)C(O)c5ccc(c(Cl)c5)O4)c4ccc(O)c(c4)-c4c(O)cc(O)cc4C(C(=O)O)NC3=O)OC(CO)C(O)C2O)CC(C)(NCc2ccc(-c3ccc(Cl)cc3)cc2)C1O (centres unmarked) [Compound 283]
- zone score, S. aureus ATCC 29213 (S. aureus (ATCC 29213); [2]): 2
- zone score, S. epidermidis ATCC 12228 [1, 2]: 2

Structure (SMILES): CC1OC(OC2C(Oc3c4cc5cc3Oc3ccc(cc3Cl)C(O)C3NC(=O)C(NC(=O)C5NC(=O)C(CC(N)=O)NC(=O)C(NC(=O)C5CCC(=O)O5)C(O)c5ccc(c(Cl)c5)O4)c4ccc(O)c(c4)-c4c(O)cc(O)cc4C(C(=O)O)NC3=O)OC(CO)C(O)C2O)CC(C)(NCc2ccc(-c3ccc(Cl)cc3)cc2)C1O (centres unmarked) [Compound 227]
- zone score, S. aureus ATCC 29213 (S. aureus (ATCC 29213); [2]): 2
- zone score, S. epidermidis ATCC 12228 [1, 2]: 2

Structure (SMILES): CSCCC(NC(C)=O)C(=O)NC1C(=O)NC(CC(N)=O)C(=O)NC2C(=O)NC3C(=O)NC(C(=O)NC(C(=O)O)c4cc(O)cc(O)c4-c4cc3ccc4O)C(O)c3ccc(c(Cl)c3)Oc3cc2cc(c3OC2OC(CO)C(O)C(O)C2OC2CC(C)(NCc3ccc(-c4ccc(Cl)cc4)cc3)C(O)C(C)O2)Oc2ccc(cc2Cl)C1O (mixture of isomers) [Compound 175]
- zone score, S. aureus ATCC 29213 (S. aureus (ATCC 29213); [3]): 2
- zone score, S. epidermidis ATCC 12228 [1, 3]: 2

Structure (SMILES): CC1OC(OC2C(Oc3c4cc5cc3Oc3ccc(cc3Cl)C(O)C3NC(=O)C(NC(=O)C5NC(=O)C(CC(N)=O)NC(=O)C(NC(=O)C(N)CCCCNC(N)=O)C(O)c5ccc(c(Cl)c5)O4)c4ccc(O)c(c4)-c4c(O)cc(O)cc4C(C(=O)O)NC3=O)OC(CO)C(O)C2O)CC(C)(NCc2ccc(-c3ccc(Cl)cc3)cc2)C1O (centres unmarked) [Compound 78]
- zone score, S. aureus ATCC 29213 (S. aureus (ATCC 29213); [3]): 2
- zone score, S. epidermidis ATCC 12228 [1, 3]: 2
